This assay deals with P. falciparum 3D7 growth, pLDH absorbance. Put plainly: blood-stage malaria parasite growth potency – strain 3D7, dose response (AID 2305).
As for `C[C@@H]([C@@H](CCCc1ccc(Cl)cc1)C(=O)N[C@H](C(=O)Nc1cccnc1)C(C)(C)C)N(O)C=O`, the IC50 worked out at 720 nM. For `CCCCCCCN(Cc1ccc(OC(C)(C)C(=O)OCC)cc1)C(=O)Nc1ccccc1OC(F)(F)F`, the IC50 amounted to 970 nM. To `CC(C)(C)c1ccc2oc(=O)n(C3CCN(C(=O)c4ccc([N+](=O)[O-])o4)CC3)c2c1` belongs 820 nM; to `COc1ccc(CNCCCCCCNCCc2ccc(Cl)cc2)cc1OC`, 1390 nM; to `COc1ccc(Nc2ncc3c(-c4cccc(NC(=O)Cc5ccc(O)cc5)c4)c[nH]c3n2)cc1OC`, 570 nM.

In turn, `OC1CCC(Nc2ccc3ncc(-c4ccc5ccccc5c4)n3n2)CC1` (configuration not stated) had an IC50 of 980 nM.

Regarding `O=C(Nc1cccc(CN2CCCN(Cc3ccsc3)CC2)c1)c1ccc(-c2ccccc2)cc1`, the IC50 came to 1340 nM. For the compound `N/C(=N/C(=NCCCCCCN=C(/N=C(/N)Nc1ccc(Cl)cc1)N1CCCCC1)N1CCCCC1)Nc1ccc(Cl)cc1`, the IC50 is 260 nM. To `COc1ccc(C(=O)Nc2cc(Br)c3c(c2)CNCC3)cc1C(F)(F)F` belongs 1070 nM; to `CN1CCCC(CN2CCN(Cc3cccc(-c4ccc(-c5nc6ccc(F)cc6[nH]5)cc4)c3)CC2)C1` (configuration not stated), 140 nM. With `Cc1cc(NCCC(=O)Nc2ccccc2)nc(NCCOc2ccccc2)n1` the figure was 1140 nM.

Compound `COc1ccc2nccc([C@@H](O)CN3CCC(NCc4cc5sccc5nc4C(F)(F)F)CC3)c2c1` came in with an IC50 of 910 nM. To `COc1ccc(Nc2nc(NCc3ccco3)c3ccccc3n2)cc1` belongs 740 nM; to `O=C(/C=C/c1ccc(Cl)c(Cl)c1)NCCCCCN1CCC(NC(=O)c2ccc([N+](=O)[O-])cc2)CC1`, 670 nM.

`CSc1ccccc1NC(=S)NC1CCN(CCCCCNC(=O)/C=C/c2ccc(Cl)c(Cl)c2)CC1` displayed an IC50 of 780 nM. The compound `Cc1cnc(Nc2ccccc2)nc1NCCC(=O)Nc1ccccc1` registered an IC50 of 1160 nM. This IC50 and that of the compound before are within 1.5-fold of each other. With `CC(=O)Nc1ccc(C(=O)NC2CCN(c3ccnc4cc(Cl)ccc34)CC2)cc1` the figure was 360 nM; with `COc1ccc(C=NNc2ccnc3cc(F)c(C)cc23)c2ccccc12`, 770 nM; with `COc1ccc(CNC2Cc3ccccc3C2)cc1-c1cccc(S(=O)(=O)NCCN2CCCC2)c1`, 760 nM. With `Cc1noc(C)c1-c1cccc(CNCc2cccc(-c3cccc(-c4nc5ccccc5[nH]4)c3)c2)c1` the figure was 380 nM; with `N#Cc1ccc(N(CCCO)Cc2ccccc2C(F)(F)F)cc1C(F)(F)F`, 980 nM; with `CN1CCC(OC(=O)c2cc3cc(-c4ccccc4)ccc3n2S(=O)(=O)c2ccccc2)CC1`, 1090 nM. With `Cc1cc(-c2ccc(CNCCc3cccs3)cc2)ccc1S(=O)(=O)NCc1ccccc1` the figure was 1140 nM; with `O=C(Nc1ccc(-c2cccc(-c3nc4ccccc4[nH]3)c2)cc1)Nc1ccc(Cl)c(Cl)c1`, 460 nM; with `COc1ccc(CNCc2cccc(-c3ccc(-c4nc5ccccc5[nH]4)cc3)c2)cc1`, 310 nM. On to `CN1CCCCC1CCc1cc(C(=O)Nc2ccc(-c3ccc(O)cc3)cc2)ccc1O` (configuration not stated), for which the IC50 came out at 1110 nM. With `CC(Nc1ccnc2cc(Cl)ccc12)c1ccc(S(N)(=O)=O)cc1` (configuration not stated) the figure was 930 nM. On to `CN(CCCCCNC(=O)/C=C/c1ccc(Cl)c(Cl)c1)CCCCc1c[nH]c2ccccc12`, for which the IC50 stood at 1080 nM. To `Cc1[nH]c2c(NCc3ccc(F)cc3)nccc2c1C` belongs 1360 nM; to `Cc1ccc2nc3c(cc(C(=O)NCc4ccccc4)c(=N)n3CCCn3ccnc3)c(=O)n2c1`, 990 nM; to `Clc1ccc2c(NN=Cc3ccco3)ccnc2c1`, 1100 nM. To `CCCCN(Cc1cnccc1-c1ccc(Br)cc1)c1ccc(C(O)(C(F)(F)F)C(F)(F)F)cc1` belongs 1060 nM. With `CCCCCCCn1c(=O)c(C(=O)Nc2c(C)cccc2C)c(O)c2ccccc21` the figure was 910 nM. With `CC(Cc1ccc(OCCN2CCN(c3ccc(Cl)cc3)CC2)cc1)NCC(O)c1cccc(C(F)(F)F)c1` (configuration not stated), the IC50 amounted to 810 nM. With `O=C(Cn1c(CCc2cccc(F)c2F)cc(=O)c2cccnc21)N(CCCn1ccnc1)Cc1ccc(-c2ccc(C(F)(F)F)cc2)cc1` the figure was 800 nM. In turn, `Cc1noc(C)c1-c1ccc2c(Nc3ccc(C(F)(F)F)cc3)c(C(N)=O)cnc2c1` showed an IC50 of 320 nM. With `O=C(Nc1cccc(C(F)(F)F)c1)c1cccc(S(=O)(=O)NCC2CCCN(CC3CCCCC3)C2)c1` (configuration not stated) the figure was 880 nM; with `Cn1nc(-c2ccc(NC(=O)Nc3cc(C(F)(F)F)ccc3F)cc2)c2cnc(NCCCCN3CCCC3)nc21`, 530 nM.

In turn, `O=C(/C=C/c1ccc(Cl)c(Cl)c1)NCCCCCN1CCCN(C(=O)Nc2ccc(Br)cc2)CC1` registered an IC50 of 780 nM. To `CC1CC(NCCCNc2cc(=O)c3ccccc3[nH]2)c2cc(Cl)c(Cl)c(Cl)c21` (configuration not stated) belongs 720 nM; to `Cc1cc(C2CCN(CCCCNC(=O)c3ccc(-c4ccc(C(F)(F)F)cc4)cc3)CC2)c(C)cc1OCC#N`, 1010 nM.

For `CCOc1ccc2c(NN=Cc3cccc(OC)c3)cc(C)nc2c1`, the IC50 turned out to be 120 nM.

(Values after PubChem BioAssay AID2305 (GlaxoSmithKline (GSK), 2010).)
